In brackets after ≈: the same amount, converted by molar mass. Where a SMILES comes first, the peptide text is derived from it.
Key:
P. aeruginosa = test: microbe, parasite or virus in culture; format: cell-based, Pseudomonas aeruginosa; conditions: 96-well plate, serial dilutions, 32 °C, 13–18 h, 200 rpm, OD 550 nm
Method: Quantification of the antimicrobial resistance against various AMPs was carried out by measuring the bacterial growth in the presence of peptides at serial dilutes in 96 well plates in a microplate (96-well plate) reader Infinite® M200 PRO Multimode Microplate Reader (Tecan, Maennedorf, Switzerland) according to our recent reports. All bacterial strains were incubated at 32 °C for 13–18 h at 200 rpm. Optical density measurements (λ = 550 nm) were taken automatically at 10 min intervals. Antimicrobial resistance activity was quantified as the minimum inhibitory concentration (MIC)—the lowest concentration of a peptide which prevents growth of bacterial cells.

[1] = test system: IL-10 secretion in LPS stimulated PBMNCs; test: IL-10 secretion by PBMNCs, ELISA; format: cell-based, human; conditions: LPS and 20 μg/mL peptide, 24 h
Method: (§1) The effect of the peptides was evaluated in human peripheral blood mononuclear cells (PBMNCs). Blood from healthy donors was collected in Monovette vacutainers containing EDTA. Blood was collected in accordance with the approval of the Committee of Research Ethics of the Institute of Cardiology and Regenerative Medicine, University of Latvia. Blood was diluted (1:2 ratio by volume) with 0.9% sodium chloride solution supplemented with 10 U/mL heparin and mononuclear cell fraction isolated by gradient centrifugation. Diluted blood samples were layered on Ficoll-Paque solution in ratio 2:1 (GE Healthcare, Chicago, IL, USA), and density gradient centrifugation was performed at 800× g for 20 min at room temperature in a swing-out centrifuge. Mononuclear cells containing buffy coats were aspirated and washed twice with phosphate-buffered saline and centrifuged at 600× g for 20 min at room temperature. The cell pellet was suspended in DMEM medium (Sigma, D6046, Irvine, UK) supplemented with 1% penicillin (100 U/mL)–streptomycin (100 μg/mL) and 10% fetal bovine serum (Sigma, St. Louis, MO, USA), and cells were seeded on 24-well plates at a density of 5 × 10^5 cells per well and incubated at 37 °C, 5% CO2. […]
(§2) Concentrations of TNF-α and IL-10 secreted in cultivation media by PBMNCs were determined using enzyme-linked immunosorbent assay (ELISA). […]

[2] = test system: TNF-α secretion in LPS stimulated PBMNCs; test: TNF-α secretion by PBMNCs, ELISA; format: cell-based, human; conditions: 24 h
Method: as §1, §2

[3] = test system: human peripheral blood mononuclear cells (PBMNCs); test: Viability of PBMNCs, MTT reduction assay; format: cell-based; conditions: 24 h, 4 and 20 μg/mL with or without 5 µg/mL LPS, n = 3
Method: as §1, with “temperature.” for “temperature. The cell pellet was suspended in DMEM medium (Sigma, D6046, Irvine, UK) supplemented with 1% penicillin (100 U/mL)–streptomycin (100 μg/mL) and 10% fetal bovine serum (Sigma, St. Louis, MO, USA), and cells were seeded on 24-well plates at a density of 5 × 10^5 cells per well and incubated at 37 °C, 5% CO2.”
Viability of PBMNCs after incubation with peptides was evaluated using MTT reduction assay. […] Absorption was measured at 570 nm using Tecan Infinite® 200 PRO (Tecan Group Ltd., Mannedorf, Switzerland).
Blank wells without cells were used for the background measurement. Proliferation relative to control was calculated using the equation below. […]

[4] = test system: BALB/c 3T3 murine fibroblast cell line; test: Cytotoxicity, neutral red uptake assay; format: cell-based; conditions: Balb/c 3T3, neutral red uptake, 48 h, tested 3.9–500 μg/mL
From the text: The BALB/c 3T3 murine fibroblast cell line was obtained from ATCC (American Type Culture Collection, Manassas, VA, USA). Primary human dermal fibroblasts were isolated by enzymatic digestion from skin biopsies in the Laboratory of Bioanalytical and Biodosimetry Methods, University of Latvia, in accordance with the approval of the Committee of Research Ethics of the Institute of Cardiology and Regenerative Medicine, University of Latvia. Cells were propagated in DMEM medium (Sigma, Irvine, UK), supplemented with 1% penicillin (100 U/mL)–streptomycin (100 μg/mL), and 10% calf serum (Sigma, St. Louis, MO, USA) for Balb/c 3T3 cell line and fetal bovine serum (Sigma, St. Louis, MO, USA) for primary dermal fibroblasts. All cultivations were performed in a humidified 5% CO2 atmosphere at 37 °C.
The cytotoxicity of the peptides was tested in the BALB/c3T3 cell line and primary dermal fibroblasts by the neutral red (NR) uptake assay. Cells were seeded in 96-well plates at a density of 5 × 10^3 cells per well. After 24 h of incubation, peptides in a concentration range of 3.9 to 500 μg/mL were added. Dilutions were made in a cell cultivation medium. Cultivation in the presence of extracts was performed for 48 h. Afterwards, plates were washed with phosphate-buffered saline (PBS) (Sigma, Irvine, UK), and a 25 µg/mL NR solution (Sigma, Irvine, UK) diluted in 5%-fetal-calf-serum-containing-media was added. After 3 h, incubation in a humidified 5% CO2 atmosphere at 37 °C, the plate was washed with PBS, and the NR taken up by viable cells was extracted using desorbing fixative (50% ethanol/1% acetic acid/49% water). Absorbance at 540 nm was measured using a microplate reader Tecan Infinite® 200 PRO (Tecan Group Ltd., Mannedorf, Switzerland). Cytotoxicity was expressed as a concentration-dependent reduction in the uptake of NR, compared to the untreated controls and calculated using the following equation: Cell viability (%)=Abs540nm(treatment)−Abs540nm(background)/Abs540nm(untreated control)−Abs540nm(background)×100%

C. acnes = conditions: cited from earlier work
Method: Five AMPs were examined earlier for treatment of individual bacteria related to skin and soft tissue infections, while none of them were tested against all ESCAPE pathogens simultaneously. Peptide R1 is a direct derivate of earlier published RP551 [47], with the replacement of non-proteinogenic amino acid, ornithine (O) by lysine (K) at the positions 3,8,11, and 14.

HaCaT keratinocytes = conditions: cited from earlier work

Structure (SMILES)	MIC P. aeruginosa (P. aeruginosa)	increase of IL-10 secretion compared to LPS alone [1]	increase of TNF-α secretion [2]	reduction of PBMNC viability [3]	concentrations at which cytotoxic / reduced cell viability [4]	antimicrobial activity against C. acnes (C. acnes)	concentrations without cytotoxic effect (HaCaT keratinocytes)
CC[C@H](C)[C@H](NC(=O)CNC(=O)[C@H](CCCCN)NC(=O)[C@H](Cc1ccc(O)cc1)NC(=O)[C@H](CS)NC(=O)[C@@H](NC(=O)[C@H](CCCCN)NC(=O)[C@H](Cc1ccccc1)NC(=O)[C@H](CS)NC(=O)[C@H](Cc1c[nH]c2ccccc12)NC(=O)[C@@H](N)CCCNC(=N)N)C(C)C)C(=O)N[C@@H](CS)C(=O)N[C@@H](Cc1ccc(O)cc1)C(=O)N[C@@H](CCCCN)C(=O)N[C@@H](CCCCN)C(=O)N[C@@H](CS)C(=O)N[C@@H](CCCCN)C(=O)O [RP556] (H-RWCFKVCYKGICYKKCK-OH; N-terminus and C-terminus assumed)	2 µg/mL (≈ 0.927 µM)	35.56%	below 18.3%	≤ 17.5%	only at the highest concentration	2 to 4 µg/mL	–
CC(C)[C@H](N)C(=O)N[C@@H](CCCCN)C(=O)N[C@@H](CCCNC(=N)N)C(=O)N[C@@H](Cc1c[nH]c2ccccc12)C(=O)N[C@@H](CCCCN)C(=O)N[C@@H](CCCCN)C(=O)N[C@@H](Cc1c[nH]c2ccccc12)C(=O)N[C@@H](Cc1c[nH]c2ccccc12)C(=O)N[C@@H](CCCNC(=N)N)C(=O)N[C@@H](CCCCN)C(=O)N[C@@H](Cc1c[nH]c2ccccc12)C(=O)N[C@@H](CCCCN)C(=O)N[C@@H](CCCCN)C(=O)N[C@@H](Cc1c[nH]c2ccccc12)C(=O)N[C@H](C(=O)O)C(C)C [LZ1, reference compound] (H-VKRWKKWWRKWKKWV-OH)	–	–	–	–	62.5 µg/mL	–	up to 200 μg/mL

Source: publication PMC10044245, “Comparative Evaluation of Existing and Rationally Designed Novel Antimicrobial Peptides for Treatment of Skin and Soft Tissue Infections” (Antibiotics, 2023)
